From patent publication US11484032B2, “Compositions for inhibition of insect sensing” (Vanderbilt University, priority 2011, dated 2022)
Like-named read-outs stand apart in the source and are kept apart here.

Columns and labels:
Format in all cases: cell-based
[1] = biological target: T1, AgORco+AgOR48 (Anopheles gambiae, UniProt Q7QCC7); experiment: Ca2+ imaging, HEK cells expressing AgORco+AgOR48; conditions: for Orco + 48 Agonist % value Of VUAA1: relative to VUAA1; for Orco + 48 Agonist EC50 (relative to VUAA1): stated in words relative to VUAA1; for Orco + 48 Agonist EC50 (given only relative to VUAA1): comparison with VUAA1 in words
T1 construct: expressed in transfected cells
T1 sequence (Q7QCC7 1-478): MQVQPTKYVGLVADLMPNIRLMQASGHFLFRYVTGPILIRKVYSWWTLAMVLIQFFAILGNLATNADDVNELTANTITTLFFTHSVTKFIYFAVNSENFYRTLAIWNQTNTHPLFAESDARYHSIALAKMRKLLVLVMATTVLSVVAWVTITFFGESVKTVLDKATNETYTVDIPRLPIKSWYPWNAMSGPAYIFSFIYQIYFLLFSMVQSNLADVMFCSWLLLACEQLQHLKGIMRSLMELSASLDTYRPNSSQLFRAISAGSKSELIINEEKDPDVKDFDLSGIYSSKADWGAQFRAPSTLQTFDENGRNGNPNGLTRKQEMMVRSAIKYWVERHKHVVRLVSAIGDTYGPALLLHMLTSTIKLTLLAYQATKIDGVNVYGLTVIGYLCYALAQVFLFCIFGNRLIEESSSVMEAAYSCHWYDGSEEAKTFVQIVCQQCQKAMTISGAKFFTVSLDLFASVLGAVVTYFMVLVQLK
Excerpt: (§1) For transient transfections, ORs were cloned into pCl (Promega) and transfected into Flp-In™ T-REx™293 cell lines (Invitrogen) with Fu GENE6 (Roche). For the creation of stable cell lines, a cell culture expression vector capable of expressing Orco in conjunction with a conventional OR, pcDNA5/FRT/TO (Invitrogen) was modified to create two individual expression cassettes each under the control of a separate CMV/Tet02 promoter and a BGH poly-adenylation signal. Cells (as above) were transfected with the modified pcDNA5 plasmid along with POG44 (a Flp recombinase expression plasmid) to facilitate site-specific recombination. Stable cell lines were selected using Hygromycin B (Invitrogen). Cells were maintained in DMEM (Invitrogen) supplemented with 10% Tetracycline-free FBS (HyClone) and 15 ng/ml Blasticidin. For fluorometric Ca2+ measurements, stable lines expressing ORs of interest were seeded at 20,000 cells/well in black wall, poly-lysine coated 384-well cell culture plates (Greiner) and treated with […] tetracycline (Sigma) overnight to induce OR expression. Cells were dye-loaded with 1.8 uM Fluo-4 AM (Molecular Probes), 2.5 mM Probenecid (Molecular Probes) in assay buffer (20 mM HEPES, IX HBSS) for 45 minutes at 37° C. in 5% CO2 prior to each assay. Ca^2+ mobilization was assayed in an FDSS6000 (Hamamatsu). Baseline readings were taken for 20 s before automated addition of compound previously diluted in DMSO and assay buffer. Ratios were described as Maximum/Minimum response and each response was normalized to the maximum responder.
The ability of VUAA1 and its analogs to agonize representative ORco proteins from dipteran (Anopheles gambiae, AgORco), lepidopteran (Heliothis virescens, HvORco) and hymenopteran (Harpegnathos saltator, HsORco) orders was tested. […] Furthermore, the hierarchy of VUAA series potency was the same, irrespective of whether AgORco was co-expressed with AgOR65 or AgOR48 tuning ORs (FIG. 45). Without wishing to be bound by a particular theory, odorant ligands are thought to activate the complex via interaction with the tuning ORx and thereby affect ORco/ORx channel properties. […] These findings indicate VUAA-class OR co-modulators are viable compounds for further development as broad-spectrum insect control strategies, and VUAA4 can provide an advance in the pharmacological profile of VUAA-based compounds.

[2] = biological target: T2, AgOrco+AgOR65 (Anopheles gambiae, UniProt Q7QCC7); experiment: Ca2+ imaging, HEK cells expressing AgOrco+AgOR65
T2 construct: expressed in transfected cells
T2 sequence (Q7QCC7 1-478): T1 sequence (Q7QCC7 1-478)
Excerpt: as §1
For VUAA0, a single methyl from the para position of the aniline ring (compound VUAA0, FIG. 44) in the VUAA1 structure was removed. […] In VUAA0.5, unsaturation was introduced at the para position of the aniline ring (VUAA0.5, FIG. 44). […] In VUAA2, the ethyl group of the aniline ring in VUAA1 was replaced with an isopropyl group (VUAA2, FIG. 44).

[3] = biological target: T3, Orco (AgORco) (Anopheles gambiae, UniProt Q7QCC7); experiment: Fluo-4 Ca2+ imaging, HEK293 cells expressing Orco alone; conditions: for Emax: HEK293, read-out: Orco Agonist % value Of VUAA1; for Orco Agonist EC50 (relative to VUAA1): stated in words relative to VUAA1
T3 construct: expressed in transfected cells
T3 sequence (Q7QCC7 1-478): T1 sequence (Q7QCC7 1-478)
Excerpt: as §1

[4] = biological target: T4, AgORco+AgOR10 (Anopheles gambiae, UniProt Q7QCC7); experiment: Fluo-4 Ca2+ imaging, HEK293 cells expressing Orco+AgOR10; parameters: Orco 10 + Orco Angatonist % Reduction / Orco 10 + Orco Agonist % of control: concentration or dose not given beside the values; conditions: 10 + Orco; for Orco 10 + Orco Agonist, compared with VUAA1: qualitative, relative to VUAA1; for Orco 10 + Orco Angatonist % Reduction: antagonist mode
T4 construct: expressed in transfected cells
T4 sequence (Q7QCC7 1-478): T1 sequence (Q7QCC7 1-478)
Excerpt: as §1
As part of an ongoing, cell based calcium imaging screen for novel small-molecule modulators of AgORs that might disrupt olfactory-driven mosquito behaviors (Rinker et al manuscript in preparation), the inventors identified a number of compounds that activated AgOR10+AgORco-expressing human embryonic kidney (HEK293) cells. One of these compounds, (FIG. 3 A) denoted here as VUAA1, elicited activity consistent with allosteric agonism and was pursued for its novel properties. The identity of VUAA1 was verified using high-resolution mass spectrometry (HRMS) as well as ^1H and ^13C NMR. […] As AgORco was the common element among these functional responses, the inventors postulated that VUAA1 was a potential AgORco agonist.

[5] = Orco + 48, agonist, read-out: Orco + 48 Agonist EC50
[6] = Orco + 65, read-out: Orco + 65 Agonist EC50
[7] = Orco + 48, read-out: Orco + 48 Agonist EC50
[8] = Orco alone, read-out: Orco Agonist EC50
[9] = Orco alone, agonist, relative to VUAA1

Structure (SMILES): O=C(CSc1nnc(-c2ccncc2)n1C1CC1)Nc1ccc(Br)cc1F
- Orco + 48 Agonist % value Of VUAA1 ([1]; Orco + 48, agonist): <VUAA1
- Orco + 48 Agonist EC50 (relative to VUAA1) ([1]; Orco + 48, agonist): <VUAA1

Structure (SMILES): C=CCc1ccc(O)c(OC)c1 [eugenol, reference compound]
- EC50 ([2]; heteromeric OR channels AgOrco+AgOR65, read-out: EC50): 0.5 µM

Structure (SMILES): CC(C)c1ccc(NC(=O)CSc2nnc(-c3ccncc3)n2C2CC2)cc1 [drawing 634]
- EC50 ([3]; Orco alone, agonist): 3.5 µM
- EC50 ([2]; Orco + 65, agonist, read-out: Orco + 65 Agonist EC50): 3.1 µM
- EC50 [1, 5]: 1.9 µM
- Orco + 48 Agonist % value Of VUAA1 ([1]; Orco + 48, agonist): 122%

Structure (SMILES): CCCCCCC1CCCC(=O)O1 [D-undecalactone, reference compound]
- EC50 ([1]; AgORco co-expressed with AgOR48, read-out: EC50): 0.26 µM

Structure (SMILES): CCc1ccc(NC(=O)CSc2nnc(-c3cccnc3)n2CC)cc1 [drawing 373]
- Emax [3]: 100%
- Orco 10 + Orco Agonist % of control ([4]; agonist mode): 101.8%
- EC50 [2, 6]: 47 µM
- Orco + 65 Agonist % value Of VUAA1 ([2]; Orco + 65, relative to VUAA1): 100%
- EC50 [1, 7]: 14 µM
- Orco + 48 Agonist % value Of VUAA1 ([1]; Orco + 48): 100%

Structure (SMILES): CCn1c(SCC(=O)Nc2ccc(Br)cc2F)nnc1-c1cccnc1
- Orco Agonist value compared with VUAA1 ([3]; Orco alone, qualitative, relative to VUAA1): <VUAA1
- EC50 [3, 8]: 192 µM
- Orco 10 + Orco Agonist, compared with VUAA1 ([4]; agonist mode): <VUAA1
- Orco 10 + Orco Angatonist % Reduction [4]: 0.00%

Structure (SMILES): CCn1c(SCC(=O)Nc2ccc(Br)cc2F)nnc1-c1ccncc1
- Orco + 48 Agonist EC50 (given only relative to VUAA1) ([1]; Orco + 48): <VUAA1
- Orco + 48 Agonist % value Of VUAA1 ([1]; Orco + 48): <VUAA1

Structure (SMILES): CCn1c(SCC(=O)Nc2ccc(C(C)C)cc2)nnc1-c1ccncc1
- Emax [3]: 136%
- EC50 [3, 8]: 7.4 µM
- EC50 [2, 6]: 8.2 µM
- EC50 [1, 7]: 3.5 µM
- Orco + 48 Agonist % value Of VUAA1 ([1]; Orco + 48): 112%

Structure (SMILES): CCn1c(SCC(=O)Nc2ccc(C(C)C)cc2)nnc1-c1cc[nH]n1
- Orco Agonist % value Of VUAA1 [3, 9]: <VUAA1
- Orco Agonist EC50 (relative to VUAA1) ([3]; Orco alone, agonist): <VUAA1

Structure (SMILES): CCn1c(SCCC(=O)Nc2ccc(C(C)C)cc2)nnc1-c1cccnc1
- EC50 [1, 7]: 2.2 µM

Structure (SMILES): CCn1c(SCC(=O)Nc2ccc(C(C)C)cc2)nnc1-c1ccn(C)n1
- Orco Agonist % value Of VUAA1 [3, 9]: <VUAA1
- Orco Agonist EC50 (relative to VUAA1) ([3]; Orco alone, agonist): <VUAA1

Structure (SMILES): CCc1ccc(NC(=O)CSc2nnc(-c3ccncc3)n2C2CC2)cc1
- EC50 [1, 5]: 13 µM

Structure (SMILES): CCn1c(SCC(=O)Nc2ccc(C(C)C)cc2)nnc1-c1cccnc1 [drawing 381]
- Emax [3]: 102%
- EC50 [3, 8]: 12.9 µM
- Orco 10 + Orco Agonist, compared with VUAA1 ([4]; agonist mode): >VUAA1
- EC50 [2, 6]: 9.6 µM
- EC50 [1, 7]: 9.9 µM
- Orco + 48 Agonist % value Of VUAA1 ([1]; Orco + 48): 109%

Structure (SMILES): C=CCn1c(SCC(=O)Nc2ccc(C(C)C)cc2)nnc1-c1ccncc1
- Orco + 48 Agonist % value Of VUAA1 ([1]; Orco + 48, agonist): <VUAA1
- Orco + 48 Agonist EC50 (relative to VUAA1) ([1]; Orco + 48, agonist): <VUAA1

Structure (SMILES): CCn1c(SCC(=O)Nc2ccc(C(C)C)cc2)nnc1-c1ccnc(F)c1
- Emax [3]: 38%
- EC50 [3, 8]: 100 µM
- EC50 [1, 7]: 75.2 µM
- Orco + 48 Agonist % value Of VUAA1 ([1]; Orco + 48): 62%

Structure (SMILES): CCc1ccc2c(c1)CCN2C(=O)CSc1nnc(-c2cccnc2)n1CC
- Emax [3]: 121%
- EC50 [3, 8]: 35 µM
- Orco 10 + Orco Agonist, compared with VUAA1 ([4]; agonist mode): >VUAA1
- EC50 [1, 7]: 12.8 µM

Structure (SMILES): CCn1c(SCC(=O)Nc2ccc(C(C)C)cc2)nnc1-c1cncs1
- EC50 [1, 5]: 16.8 µM

Structure (SMILES): CCCc1ccc(NC(=O)CSc2nnc(-c3ccncc3)n2C2CC2)cc1
- Orco + 48 Agonist % value Of VUAA1 ([1]; Orco + 48, agonist): <VUAA1
- Orco + 48 Agonist EC50 (relative to VUAA1) ([1]; Orco + 48, agonist): <VUAA1

Structure (SMILES): CCc1ccc(NC(=O)CSc2nnc(-c3ccncc3)n2CC)cc1
- Orco + 48 Agonist EC50 (given only relative to VUAA1) ([1]; Orco + 48): <VUAA1
- Orco + 48 Agonist % value Of VUAA1 ([1]; Orco + 48): <VUAA1

Structure (SMILES): CCCn1c(SCC(=O)Nc2ccc(C(C)C)cc2)nnc1-c1ccncc1
- EC50 [1, 5]: 19 µM

Structure (SMILES): CCCc1ccc(NC(=O)CSc2nnc(-c3cccnc3)n2CC)cc1
- Emax [3]: 87%
- EC50 [3, 8]: 63 µM
- Orco 10 + Orco Agonist, compared with VUAA1 ([4]; agonist mode): <VUAA1
- EC50 [1, 7]: 19.8 µM

Structure (SMILES): CCn1c(SCC(=O)N2CCc3cc(Br)ccc32)nnc1-c1cccnc1
- Emax [3]: 59%
- EC50 [3, 8]: 55 µM
- Orco 10 + Orco Agonist, compared with VUAA1 ([4]; agonist mode): >VUAA1
- Orco 10 + Orco Angatonist % Reduction [4]: 59%

Structure (SMILES): C=Cc1ccc(NC(=O)CSc2nnc(-c3cccnc3)n2CC)cc1 [drawing 376]
- Emax [3]: 57%
- EC50 [3, 8]: 102 µM
- Orco 10 + Orco Agonist, compared with VUAA1 ([4]; agonist mode): <VUAA1
- EC50 [1, 7]: 37.4 µM
- Orco + 48 Agonist % value Of VUAA1 ([1]; Orco + 48): 77%

Structure (SMILES): CCn1c(SCC(=O)Nc2ccc(C(C)C)cc2)nnc1-c1cc[nH]c1
- EC50 [1, 5]: 13.7 µM
- Orco + 48 Agonist % value Of VUAA1 ([1]; Orco + 48, agonist): Poor

Structure (SMILES): C=Cc1ccc(NC(=O)CSc2nnc(-c3ccncc3)n2CC)cc1
- Orco + 48 Agonist EC50 (given only relative to VUAA1) ([1]; Orco + 48): <VUAA1
- Orco + 48 Agonist % value Of VUAA1 ([1]; Orco + 48): <VUAA1

Structure (SMILES): C=Cc1ccc(NC(=O)CSc2nnc(-c3ccncc3)n2C2CC2)cc1
- Orco + 48 Agonist % value Of VUAA1 ([1]; Orco + 48, agonist): <VUAA1
- Orco + 48 Agonist EC50 (relative to VUAA1) ([1]; Orco + 48, agonist): <VUAA1

Structure (SMILES): CCCc1ccc(NC(=O)CSc2nnc(-c3ccncc3)n2CC)cc1
- Orco + 48 Agonist EC50 (given only relative to VUAA1) ([1]; Orco + 48): <VUAA1
- Orco + 48 Agonist % value Of VUAA1 ([1]; Orco + 48): <VUAA1

Structure (SMILES): CCn1c(SCC(=O)Nc2ccc(C)cc2)nnc1-c1cccnc1 [drawing 372]
- EC50 [3, 8]: 262 µM
- EC50 [2, 6]: 335 µM
- EC50 [1, 7]: 996 µM
